{"source": "patent US20260216168A1", "about": "“MODULATION OF PD-1 SIGNALING FOR TREATMENT OF DISEASES” (Wuhan University, priority 2023, published 2026)", "key": {"MARCH5": {"biological_target": "T1, MARCH5 (Homo sapiens, UniProt Q9NX47)", "T1 construct": "expressed in transfected cells; host or cells: HEK293", "T1 sequence (Q9NX47 1-278)": "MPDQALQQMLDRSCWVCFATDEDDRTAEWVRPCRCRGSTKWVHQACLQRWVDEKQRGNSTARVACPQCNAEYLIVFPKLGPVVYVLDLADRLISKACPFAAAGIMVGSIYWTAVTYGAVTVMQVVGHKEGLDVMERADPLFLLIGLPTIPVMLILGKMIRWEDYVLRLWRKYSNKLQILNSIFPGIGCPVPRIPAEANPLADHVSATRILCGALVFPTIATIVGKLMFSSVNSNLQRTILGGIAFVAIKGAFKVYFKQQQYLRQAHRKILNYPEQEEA", "assay": "MARCH5 / γc-luciferase reporter system in co-transfected HEK293 cells (screen of FDA-approved drugs)", "assay_type": "cell-based", "source_text": "Unfortunately, no pharmacological inhibitors of MARCH5 have been reported. We designed a reporter system in which HEK293 cells are co-transfected with two plasmids encoding MARCH5 and γc-luciferase fusion protein respectively. In this system, inhibition of MARCH5 by an inhibitor would result in increased luciferase activity in reporter assays.\nUsing this system, we screened a collection of Food and Drug Administration-approved drugs and identified 10 compounds that increased luciferase activity to more than 1.5-folds (Table 1). […] Pitavastatin is a unique lipophilic statin and potent inhibitor of HMG-CoA reductase with a strong effect on lowering plasma total cholesterol and triacylglycerol. Pitavastatin has also been reported to have pleiotropic beneficial effects such as suppression of inflammation, regulation of angiogenesis and osteogenesis, improvement of endothelial function and arterial stiffness."}, "γc": {"tested_on": "γc", "assay": "γc level by immunoblotting after PC treatment of T cells and T cell lines", "assay_type": "cell-based", "conditions": "PC 0, 0.5, 1, 2 μM, 24 h; human and mouse CD8+ T, Jurkat, HPB-ALL, CTLL2 cells; listed as PC"}, "[1]": {"tested_on": "MARCH5-deficient Jurkat cells", "assay": "γc level by immunoblotting in control or MARCH5-deficient Jurkat cells treated with PC", "assay_type": "cell-based, human", "conditions": "PC 0, 0.5, 1 μM, 24 h, listed as PC"}, "[2]": {"tested_on": "MC38 colorectal carcinoma and B16F10 melanoma", "assay": "Pitavastatin calcium (PC) therapy in C57BL/6j mice, MC38 and B16F10 tumor models", "assay_type": "in vivo, mouse", "conditions": "PC alone 5 mg/kg/day i.p.; MC38 and B16F10 in C57BL/6j mice; listed as PC", "description": "C57BL/6j mice were subcutaneously injected with 5×10^5 of MC38 or B16F10 cells. On day 3 (MC38) or 5 (B16F10) after tumor cell implantation, mice were intraperitoneally injected with control or PC (5 mg/kg/day). Tumor sizes were measured every two days by caliper. Tumor-bearing mice were euthanized on day 13 (MC38) or day 15 (B16F10). Tumor weights were measured by Analytical Balance. […] Data were analyzed using a student's unpaired t-test with GraphPad Prism 8. • (D) Effects of PC on the level of γc in TILs. TILs were isolated from the MC38 tumor tissues of FIG. 7C. TILs were stained with the indicated antibodies and analyzed by flow cytometry. […] Data were analyzed using a student's unpaired t-test with GraphPad Prism 8. […] TILs were isolated from the MC38 tumor tissues of FIG. 7C. TILs were stained with the indicated antibodies and analyzed by flow cytometry. […] C57BL/6j mice were subcutaneously injected with MC38 cells (5×10^5). […] Tumor sizes were measured every two days by caliper from day 5. […]\nPitavastatin calcium (PC) therapy in C57BL/6j mice: mice were intraperitoneally injected with control or PC (P129617, 5 mg/kg/day, dissolved in PBS, Aladdin) three (MC38 tumor) or five (B16F10 tumor) days after inoculation of tumor cells, and tumor sizes were measured every two days by caliper. […] TILs were analyzed by flow cytometry."}, "[3]": {"tested_on": "tumor-infiltrating lymphocytes", "assay": "Flow cytometry of tumor-infiltrating lymphocytes from MC38 tumors after PC", "assay_type": "in vivo, mouse", "description": "(§1) C57BL/6j mice were subcutaneously injected with 5×10^5 of MC38 or B16F10 cells. On day 3 (MC38) or 5 (B16F10) after tumor cell implantation, mice were intraperitoneally injected with control or PC (5 mg/kg/day). Tumor sizes were measured every two days by caliper. Tumor-bearing mice were euthanized on day 13 (MC38) or day 15 (B16F10). Tumor weights were measured by Analytical Balance. […] Data were analyzed using a student's unpaired t-test with GraphPad Prism 8. • (D) Effects of PC on the level of γc in TILs. TILs were isolated from the MC38 tumor tissues of FIG. 7C. TILs were stained with the indicated antibodies and analyzed by flow cytometry. […] Data were analyzed using a student's unpaired t-test with GraphPad Prism 8. […] TILs were isolated from the MC38 tumor tissues of FIG. 7C. TILs were stained with the indicated antibodies and analyzed by flow cytometry. […] C57BL/6j mice were subcutaneously injected with MC38 cells (5×10^5). […] Tumor sizes were measured every two days by caliper from day 5. […] C57BL/6j mice were subcutaneously injected with MC38 cells (5×10^5). […] Mice were sacrificed when the tumor size is bigger than 15 mm of the mean tumor diameter, tumor volume exceeded 2000 mm^3, or tumor had ulcers with diameter reached 10 mm. Statistical analysis was performed using the GraphPad Prism 8 software, n=8. Kaplan-Meier survival curves and corresponding log-rank (Mantel-Cox) tests were used to evaluate the statistical differences between groups in survival studies. There is a significant difference when the P<0.05.\nCells were subjected to stain with the indicated antibodies for 30 min in 4° C. The cells were analyzed and data were acquired with BD Fortessa X-20 and FACSDiva 7 software following the exemplified gating strategy for flow cytometry analysis. The data were processed using FlowJo software.\nPitavastatin calcium (PC) therapy in C57BL/6j mice: mice were intraperitoneally injected with control or PC (P129617, 5 mg/kg/day, dissolved in PBS, Aladdin) three (MC38 tumor) or five (B16F10 tumor) days after inoculation of tumor cells, and tumor sizes were measured every two days by caliper. Tumor-bearing mice were euthanized on day 13 (MC38 tumor) or day 15 (B16F10 tumor). TILs were analyzed by flow cytometry.\nTumor tissues were separated from the mice and cut into pieces. The tumor tissues were suspended with 2 ml of tumor digestion buffer (1×HBSS buffer with 5 mg/ml collagenase II and 0.1% DNaseI) and rotated for at 37° C. for 1 h. The cell suspension was filtered using a 70-μm filter to obtain single-cell suspension. […] Cells were analyzed and data were acquired with BD Fortessa X-20 and FACSDiva 7 software following the exemplified gating strategy for flow cytometry analysis. […]"}, "MC38 cells": {"tested_on": "MC38 cells", "assay": "PC, IL-2 and anti-PD-1 therapy in C57BL/6j mice bearing MC38 tumors", "assay_type": "in vivo", "conditions": "PC 5 mg/kg, IL-2 50000 IU per mouse, anti-PD-1 100 μg per mouse, i.p.", "description": "as §1\nTumor size and mouse survival were measured every two days from day 5.\nFor survival studies, mice were sacrificed when the tumor size was bigger than 15 mm of the mean tumor diameter, tumor volume exceeded 2000 mm^3, or tumor had ulcers with a diameter reached 10 mm. Statistical analysis was performed using the GraphPad Prism 8 software. Kaplan-Meier survival curves and corresponding log-rank (Mantel-Cox) tests were used to evaluate the statistical differences between groups in survival studies. There is a significant difference when the P<0.05."}, "tumor": {"tested_on": "tumor", "assay": "PC or rosuvastatin calcium alone or with IL-2 on tumor growth in mice", "assay_type": "in vivo, mouse", "source_text": "We further tested the anti-tumor effects of PC in mouse MC38 colorectal carcinoma and B16F10 melanoma models."}}, "note": "Entries after “also recorded” stand apart in the source; their conditions may differ."}
{"compound": "O=C(O)C[C@H](O)C[C@H](O)/C=C/c1c(C2CC2)nc2ccccc2c1-c1ccc(F)cc1", "note": "[Pitavastatin calcium]", "values": [{"measurement": "Rel. Luc. Act", "setting": "MARCH5; HEK293 cells co-transfected with MARCH5 and γc-luciferase fusion protein, increase = MARCH5 inhibition", "value": 2.06}, {"measurement": "luciferase activity in MARCH5-expressing versus control HEK293 cells", "setting": "MARCH5; confirmative experiments", "value": "specifically increased the luciferase activity in MARCH5-expressing but not control HEK293 cells"}, {"measurement": "level of γc (immunoblotting)", "setting": "γc", "value": "up-regulated the level of γc in a dose-dependent manner; also recorded: up-regulates the level of γc"}, {"measurement": "γc protein level, MARCH5 dependence", "setting": "[1]", "value": "did not further increase its protein level; also recorded: MARCH5-deficiency impairs PC-induced up-regulation of γc; also recorded: up-regulated the level of γc in a MARCH5-dependent manner"}, {"measurement": "tumor growth", "setting": "[2]", "value": "significantly suppressed tumor growth; also recorded: suppresses tumor growth; also recorded: inhibited tumor growth"}, {"measurement": "level of γc in tumor-infiltrating lymphocytes", "setting": "[3]; MC38 tumors, PC 5 mg/kg/day i.p., listed as PC", "value": "higher level of γc; also recorded: up-regulated the level of γc in tumor-infiltrating lymphocytes"}, {"measurement": "percentage of TIM3+ cells in infiltrated CD8+ T cells", "setting": "[3]; MC38 tumors, PC treatment", "value": "reduced the percentage of TIM3^+ cells"}, {"measurement": "percentage of GzmB+ cells in infiltrated CD8+ T cells", "setting": "[3]; MC38 tumors, PC treatment, listed as PC", "value": "up-regulated the percentage of GzmB^+ cells; also recorded: increases tumor infiltrating CD8^+ cytotoxic T cells"}, {"measurement": "percentages of CD8+ T, NK, CD4+ T, Treg and B cells in tumor-infiltrating lymphocytes", "setting": "[3]; after PC administration", "value": "did not show significant difference"}, {"measurement": "tumor suppression by IL-2 or IL-2 plus PD-1 blocking antibody when PC is added", "setting": "MC38 cells", "value": "significantly improved the efficacy of anti-tumor immunotherapy in mice"}, {"measurement": "overall survival of mice treated with IL-2 or IL-2 plus PD-1 blocking antibody when PC is added", "setting": "MC38 cells; listed as PC", "value": "significantly increased the efficacies; also recorded: promotes the survival rate of mice treated with IL-2 and PD-1 blockade"}, {"measurement": "tumor suppression by IL-2 or IL-2 plus PD-1 blocking antibody when PC is added", "setting": "MC38 cells; listed as PC", "value": "significantly increased the efficacies; also recorded: potentiates the anti-tumor efficacy of IL-2 and PD-1 combination; also recorded: sensitized the anti-tumor effects of IL-2 as well as its combination with PD-1 blocking antibody"}, {"measurement": "synergistic effect with IL-2 on tumor suppression", "setting": "tumor; combined with IL-2, mice", "value": "has a synergistic effect"}, {"measurement": "tumor growth", "setting": "tumor; statin administered alone, mice", "value": "suppressed tumor growth"}]}
